Laboratory results: patent US20030044399A1, “Method of treatment” (SmithKline Beecham Corporation, priority 1998, published 2003)

target: Cruzain (Trypanosoma cruzi, UniProt P25779); experiment: Cysteine protease inhibition, progress curve method, cruzain; type: biochemical; conditions: 4 uM Ac-Lys-Glu-Lys-Leu-Arg-AMC, 100 mM Na acetate pH 5.5, 5 mM cysteine; read-out: Cruzain Ki
Method: Standard assay conditions for the determination of kinetic constants used 10 uM fluorogenic peptide substrate, Cbz-Phe-Arg-AMC for the cysteine proteases from Leishmania spp and Schistosoma Mansoni, Cbz-Leu-Arg-AMC for the cysteine proteases from Plasmodium falciparum and Trypanosoma brucei rhodesiensi, and Ac-Lys-Glu-Lys-Leu-Arg-AMC (4 uM final substrate concentration) for the cysteine protease from Trypoanosoma cruzi, and were determined in 100 mM Na acetate at pH 5.5 containing 5 mM cysteine. Stock substrate solutions were prepared at concentrations of […] in DMSO with 10 uM (4 uM for Ac-Lys-Glu-Lys-Leu-Arg-AMC) final substrate concentration in the assays. The final DMSO concentration was 2% and the final volume was 100 uL. All assays were conducted at ambient temperature. Product progress curves were generated over 20 to 30 minutes following formation of AMC product.
Potential inhibitors were evaluated using the progress curve method. Assays were carried out in the presence of variable concentrations of test compound. Reactions were initiated by addition of enzyme to buffered solutions of inhibitor and substrate. Data analysis was conducted according to one of two procedures depending on the appearance of the progress curves in the presence of inhibitors. For those compounds whose progress curves were linear, apparent inhibition constants (Ki,app) were calculated according to equation 1 (Brandt et al., Biochemitsry, 1989, 28, 140):
v=VmA/[Ka(1+I/Ki,app)+A] (1)
Where v is the velocity of the reaction with maximal velocity Vm, A is the concentration of substrate with Michaelis constant of Ka, and I is the concentration of inhibitor.
[AMC]=vsst+(v0−vss)[1−exp (−kobst)]/kobs (2)
Where [AMC] is the concentration of product formed over time t, v0 is the initial reaction velocity and vss is the final steady state rate. Values for kobs were then analyzed as a linear function of inhibitor concentration to generate an apparent second order rate constant (kobs/inhibitor concentration or kobs/[I]) describing the time-dependent inhibition. A complete discussion of this kinetic treatment has been fully described (Morrison et al., Adv. Enzymol. Relat. Areas Mol. Biol., 1988, 61, 201).
Exemplary inhibition data for the compounds used in the present method collected in accordance with the above-described procedure are listed in Table I.

Cruzain, sequence (P25779 123-337): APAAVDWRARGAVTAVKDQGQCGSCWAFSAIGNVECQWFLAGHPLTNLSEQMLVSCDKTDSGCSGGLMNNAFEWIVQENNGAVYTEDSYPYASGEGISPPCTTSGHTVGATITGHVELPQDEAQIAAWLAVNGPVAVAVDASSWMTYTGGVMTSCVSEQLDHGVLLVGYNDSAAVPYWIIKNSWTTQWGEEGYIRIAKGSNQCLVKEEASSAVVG

Point of comparison: `CC(C)C[C@@H](NC(=O)c1cc2cc(OCCN3CCOCC3)ccc2o1)C(=O)N[C@@H]1CCCN(S(=O)(=O)c2ccccn2)CC1=O` (single isomer, unassigned) [Example 20], Ki 8 nM. Against it:
- 4-[2-(2-{(S)-3-Methyl-1[3-oxo-1-(pridine-2-sulfonyl)-azepan-4-ylcarbamoyl]-butylcarbamoyl}-benzofuran-5-yloxy)-ethyl]-piperazine-1-carboxylic acid tert-butyl ester [Example 22] — 1.8-fold higher, 14 nM
- CC(C)C[C@@H](NC(=O)c1cc2cc(OCCN3CCOCC3)ccc2o1)C(=O)N[C@@H]1CCCN(S(=O)(=O)c2ccccc2)CC1=O (single isomer, unassigned) [Example 7] — 2.9-fold higher, 23 nM
- CC(C)C[C@@H](NC(=O)c1cc2cc(OCCN3CCCC3)ccc2o1)C(=O)NC1CCCN(S(=O)(=O)c2ccccc2)CC1=O (single isomer, unassigned) [Example 13] — 4-fold higher, 32 nM
- CC(C)C[C@@H](NC(=O)c1cc2cc(OCCN3CCCCC3)ccc2o1)C(=O)NC1CCCN(S(=O)(=O)c2ccccc2)CC1=O (single isomer, unassigned) [Example 14] — 8.4-fold higher, 67 nM
- CC(C)C[C@@H](NC(=O)c1cc2cc(OCCN3CCOCC3)ccc2o1)C(=O)N[C@@H]1CCCN(S(=O)(=O)c2ccccn2)CC1=O (single isomer, unassigned) [Example 19] — 4-fold lower, 2 nM
- CC(C)C[C@@H](NC(=O)c1cc2cc(OCCN3CCOCC3)ccc2o1)C(=O)N[C@@H]1CCCN(S(=O)(=O)c2ccccc2)CC1=O (stereo in doubt) [Example 6, 5-(2-Morpholin-4-yl-ethoxy)-benzofuran-2-carboxylic acid [(S)-1-(1-benzenesulfonyl-3-oxo-azepan-4-ylcarbamoyl)-3-methyl-butyl]amide] — 2.6-fold higher, 21 nM
- CC(C)C[C@@H](NC(=O)c1cc2cc(OCCN3CCCC3)ccc2o1)C(=O)N[C@@H]1CCCN(S(=O)(=O)c2ccccc2)CC1=O (stereo in doubt) [Example 8, 5-(2-Pyrrolidin-1-yl-ethoxy)-benzofuran-2-carboxylic acid [(S)-1-(1-benzenesulfonyl-3-oxo-azepan-4-ylcarbamoyl)-3-methyl-butyl]amide] — the same, 8 nM
- CC(C)C[C@@H](NC(=O)c1cc2ccccc2[nH]1)C(=O)N[C@@H]1CCCN(S(=O)(=O)c2ccccc2)CC1=O (stereo in doubt) [Example 11, 1H-Indole-2-carboxylic acid [(S)-1-(1-benzenesulfonyl-3-oxo-azepan-4-ylcarbamoyl)-3-methyl-butyl]amide] — 12-fold higher, 100 nM
- CC(C)C[C@@H](NC(=O)c1cc2ccccc2o1)C(=O)N[C@@H]1CCCN(S(=O)(=O)c2ccccc2)CC1=O (stereo in doubt) [Example 12, Benzofuran-2-carboxylic acid [(S)-1-(1-benzenesulfonyl-3-oxo-azepan-4-ylcarbamoyl)-3-methyl-butyl]amide] — 2-fold higher, 16 nM
- CC(C)C[C@@H](NC(=O)c1ccc2ccccc2n1)C(=O)N[C@@H]1CCCN(S(=O)(=O)c2ccccn2)CC1=O (stereo in doubt) [Example 24, Quinoline-2-carboxylic acid {(S)-3-methyl-1-[3-oxo-1-(pyridine-2-sulfonyl)-azepan-4-ylcarbamoyl]-butyl}amide] — 2.9-fold higher, 23 nM
- CC(C)C[C@@H](NC(=O)c1cc2ccccc2cn1)C(=O)N[C@@H]1CCCN(S(=O)(=O)c2ccccn2)CC1=O (stereo in doubt) [Example 28, Isoquinoline-3-carboxylic acid {(S)-3-methyl-1-[3-oxo-1-(pyridine-2-sulfonyl)-azepan-4-ylcarbamoyl]-butyl}amide] — 3-fold higher, 24 nM
- CC(C)C[C@@H](NC(=O)c1nccc2ccccc12)C(=O)N[C@@H]1CCCN(S(=O)(=O)c2ccccn2)CC1=O (stereo in doubt) [Example 29, Isoquinoline-1-carboxylic acid {(S)-3-methyl-1-[3-oxo-1-(pyridine-2-sulfonyl)-azepan-4-ylcarbamoyl]-butyl}amide] — within 1.5-fold, 11 nM
- CC(C)C[C@@H](NC(=O)c1cc2ccccc2[nH]1)C(=O)N[C@@H]1CCCN(S(=O)(=O)c2ccccn2)CC1=O (stereo in doubt) [Example 32, 1H-Indole-2-carboxylic acid {(S)-3-methyl-1-[3-oxo-1-(pyridine-2-sulfonyl)-azepan-4-ylcarbamoyl]-butyl}amide] — 2.1-fold higher, 17 nM
- COc1ccc2oc(C(=O)N[C@H](CC(C)C)C(=O)N[C@@H]3CCCN(S(=O)(=O)c4ccccn4)CC3=O)cc2c1 (stereo in doubt) [Example 33, 5-Methoxy-benzofuran-2-carboxylic acid {(S)-3-methyl-1-[3-oxo-1-(pyridine-2-sulfonyl)-azepan-4-ylcarbamoyl]-butyl}amide] — 1.8-fold higher, 14 nM
- CC(C)C[C@@H](NC(=O)COc1ccc(F)cc1)C(=O)N[C@@H]1CCCN(S(=O)(=O)c2ccccn2)CC1=O (stereo in doubt) [Example 37, (S)-2-[2-(4-Fluoro-phenoxy)-acetylamino]-4-methyl-pentanoic acid [3-oxo-(pyridine-2-sulfonyl)-azepan-4-yl]-amide] — 4.1-fold higher, 33 nM
- COc1ccc(S(=O)(=O)N2CCCC(NC(=O)C(CC(C)C)NC(=O)c3cc4ccccc4o3)C(=O)C2)cc1 (stereo in doubt) [Example 74, Benzofuran-2-carboxylic acid {(S)-1-[1-(4-methoxy-benzenesulfonyl)-3-oxo-azepan-4-ylcarbamoyl]-3-methyl-butyl}-amide] — 3-fold higher, 24 nM
- Cc1cccc(S(=O)(=O)N2CCC[C@@H](NC(=O)[C@@H](CC(C)C)NC(=O)c3cc4ccccc4o3)C(=O)C2)n1 (stereo in doubt) [Example 172, Benzofuran-2-carboxylic acid {(S)-3-methyl-1-[1-(6-methyl-pyridine-2-sulfonyl)-3-oxo-azepan-4-ylcarbamoyl]-butyl}amide] — within 1.5-fold, 7.4 nM
- CC(C)CC(NC(=O)c1cc2ccccc2o1)C(=O)NC1CCC(C)N(S(=O)(=O)c2ccccn2)CC1=O (stereo in doubt) [Example 181, Benzofuran-2-carboxylic acid {(S)-3-methyl-1-[(4S,7S)-7-methyl-3-oxo-1-(pyridine-2-sulfonyl)-azepan-4-ylcarbamoyl]-butyl}-amide] — 1.9-fold higher, 15 nM
- CC(C)C[C@H](NC(=O)c1ccc2c(c1)OCO2)C(=O)N[C@H]1CCCN(Cc2ccccc2)CC1=O [Example 1, benzo[1,3]dioxole-5-carboxylic acid [(S)-1-(1-benzyl-3-oxoazepan-4-ylcarbamoyl)-3-methyl-butyl]amide] — 7.2-fold higher, 58 nM
- CC(C)C[C@H](NC(=O)c1ccc2ccccc2n1)C(=O)NC1CCCN(Cc2ccccc2)CC1=O (stereo partly drawn) [Example 2, Quinoline-2-carboxylic acid [(S)-1-(1-benzyl-3-oxo-azepan-4-ylcarbamoyl)-3-methyl-butyl]amide] — 5.5-fold higher, 44 nM
- CC(C)CCC(=O)N1CCCC(NC(=O)[C@@H](CC(C)C)NC(=O)c2cc3cc(OCCN4CCOCC4)ccc3o2)C(=O)C1 (stereo partly drawn) [Example 15, 5-(2-Morpholino-4-yl-ethoxy)-benzofuran-2-carboxylic acid {(S)-3-methyl-1-[1-(4-methyl-2entanoyl)-3-oxo-azepan-4-ylcarbamoyl]-butyl}-amide] — 3-fold higher, 24 nM
- CC(C)C[C@@H](NC(=O)c1cc2cc(OCCN3CCOCC3)ccc2o1)C(=O)N[C@@H]1CCCN(S(=O)(=O)c2ccccn2)CC1=O [Example 18, 5-(2-Morpholino-4-yl-ethoxy)-benzofuran-2-carboxylic acid {(S)-3-methyl-1-[3-oxo-1-(pyridine-2-sulfonyl)-azepan-4-ylcarbamoyl]-butyl}1-amide] — within 1.5-fold, 6.3 nM
- CC(C)C[C@H](NC(=O)c1cc2ccccc2o1)C(=O)N[C@H]1CCCN(S(=O)(=O)c2cccs2)CC1=O [Example 38, Benzofuran-2-carboxylic acid {(S)-3-methyl-1-[3-oxo-1-(thiophene-2-sulfonyl)-azepan-4-ylcarbamoyl]-butyl}-amide] — 1.8-fold lower, 4.5 nM
- COc1ccc2oc(C(=O)N[C@H](CC(C)C)C(=O)N[C@@H]3CCCN(S(=O)(=O)c4cccc[n+]4[O-])CC3=O)cc2c1 [Example 53, 5-Methoxy-benzofuran-2-carboxylic acid {(S)-3-methyl-1[3-oxo-1-(1-oxy-pyridine-2-sulfonyl)-azepan-4-ylcarbamoyl]-butyl}amide] — within 1.5-fold, 10 nM
- CC(C)C[C@@H](NC(=O)c1cc2cc(OCCN3CCOCC3)ccc2o1)C(=O)NC1CCCN(S(=O)(=O)c2cccc[n+]2[O-])CC1=O (stereo partly drawn) [Example 56, 5-(2-Morpholin-4-yl-ethoxy)-benzofuran-2-carboxylic acid {(S)-3-methyl-1-[3-oxo-(1-oxy-pyridine2-sulfonyl)-azepan-4-ylcarbamoyl]-buty}-amide] — within 1.5-fold, 7.8 nM
